# Source: patent US20090176794A1, “1H-INDOL-1-YL-UREA COMPOUNDS” (LES LABORATOIRES SERVIER, priority 2008, published 2009)
# Tests used:
# [1] = system: tyrosine hydroxylase (TH) protein in the locus coeruleus (LC); experiment: Induction of tyrosine hydroxylase in the locus coeruleus after i.p. injection; type: in vivo; conditions: i.p. 20 mg/kg, three days after single injection, Balb/C mouse; for amount of TH in LC section 1, relative to the mean value of the control group: LC section 1 (anterior-to-posterior)
# Description: A search is made among the compounds for those which are capable of bringing about an increase in the tyrosine hydroxylase (TH) protein in the locus coeruleus (LC) of the brain of the Balb/C mouse.
# The animals used are male mice of the pure Balb/C strain (Charles River Laboratories) aged from 7 to 8 weeks at the time of treatment.
# The mice are given a single injection, by the intraperitoneal route, of the compound under test, dissolved in 0.04M HCl solution (corresponding control: […]), if the compound is sufficiently soluble, or in olive oil 90%/DMSO 10% (corresponding control: olive oil 90%/DMSO 10%) for compounds that are insoluble in an aqueous medium.
# Three days after the injection of each compound, all the animals are sacrificed by decapitation. The brains are removed and then frozen in liquid nitrogen and stored at −80° C.
# Coronal sections 8 microns thick are taken along the posterior-anterior axis of the LC and fixed. The sections are transferred onto Immobilon-P membranes. The TH is measured by immunodetection and image analysis.
# [2] = Predicted metabolic stability, mouse hepatic microsomes; type: in vitro ADME; conditions: mouse hepatic microsomes 0.33 mg prot/ml; compound 10^-7 M; NADPH; 0-60 min
# Experimental: (§1) The predicted metabolic stability is tested by incubation of the compounds at a concentration of 10^−7M in the presence of mouse, rat or human hepatic microsomes (0.33 mg of prot/ml). After addition of NADPH (nicotinamide adenine dinucleotide phosphate, reduced form), samples are taken at 0, 5, 15, 30 and 60 minutes. The enzymatic reaction is stopped using methanol (V/V). The protein is precipitated by centrifugation and the supernatant is analysed by LC-MS-MS.
# [3] = Predicted metabolic stability, rat hepatic microsomes; type: in vitro ADME; conditions: rat hepatic microsomes 0.33 mg prot/ml; compound 10^-7 M; NADPH; 0-60 min
# Experimental: as §1
# [4] = Predicted metabolic stability, human hepatic microsomes; type: in vitro ADME; conditions: human hepatic microsomes 0.33 mg prot/ml; compound 10^-7 M; NADPH; 0-60 min
# Experimental: as §1
# [5] = system: confluent endothelial cells from bovine capillaries; experiment: Predicted crossing of the blood-brain barrier (BBB); type: in vitro ADME; set-up: key: high; intermediate; low; conditions: 20 μM in upper compartment; filter with bovine capillary endothelial cells; 10-60 min
# Experimental: The substances are incubated at 20 μM in the upper compartment of a double container, the upper compartment being separated from the lower compartment either solely by a polycarbonate filter or by the same filter covered with confluent endothelial cells from bovine capillaries. Evaluation of the permeability kinetics is carried out by means of LC-MS-MS quantification of the unchanged substance in the lower compartment after 10, 20, 30, 40 and 60 minutes.
# ERK1 [6] = biological target: T1, ERK1 (Homo sapiens, UniProt P27361); experiment: Biacore direct interaction with recombinant ERK1; type: binding
# Description: (§2) Various forms of non-phosphorylated recombinant ERK (ERK1 and ERK2) and of phosphorylated recombinant ERK (p-ERK1 and p-ERK2) are fixed separately on “chips” and studied in the Biacore® system. The direct interaction of the compound of Example 1 at different concentrations is studied. • 2. Results
# ERK2 [7] = biological target: T2, ERK2 (Homo sapiens, UniProt P28482); experiment: Biacore direct interaction with recombinant ERK2; type: binding
# Description: as §2
# ERK1 [8] = biological target: T1, ERK1; experiment: ERK1 phosphorylation ex vivo in pig brain tissues; type: biochemical; set-up: host or cells: recombinant protein added to pig brain tissue preparations; conditions: 3×10^-9 M
# Description: (§3) The various brain structures are isolated, treated and suspended in a medium without phosphate, after inactivation of the phosphatases of the tissues. The tissues are cleared of their own ERK and p-ERK and placed in the presence of specific recombinant forms of ERK1, ERK2, p-ERK1 and p-ERK2.
# (§4) The phosphorylation capacities are studied in the presence and absence of the compound of Example 1 by means of antibodies that allow evaluation of non-phosphorylated and phosphorylated ERK1 and ERK2. • 2. Results
# ERK2 [9] = biological target: T2, ERK2; experiment: ERK2 phosphorylation ex vivo in pig brain tissues; type: biochemical; set-up: host or cells: recombinant protein added to pig brain tissue preparations; conditions: 3×10^-9 M
# Description: as §3, §4
# [10] = pig brain prefrontal cortex ex vivo
# T2 sequence (P28482 whole entry, species assumed): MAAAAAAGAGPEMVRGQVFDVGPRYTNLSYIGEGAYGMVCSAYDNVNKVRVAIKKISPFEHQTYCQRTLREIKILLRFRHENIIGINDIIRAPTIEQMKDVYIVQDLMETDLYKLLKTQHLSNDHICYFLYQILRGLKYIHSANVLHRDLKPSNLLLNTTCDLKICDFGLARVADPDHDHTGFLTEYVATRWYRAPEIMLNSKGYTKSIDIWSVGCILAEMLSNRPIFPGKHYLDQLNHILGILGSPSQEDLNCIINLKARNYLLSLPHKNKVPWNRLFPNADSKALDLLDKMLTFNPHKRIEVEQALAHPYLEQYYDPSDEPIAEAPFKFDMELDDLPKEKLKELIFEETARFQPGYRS
# T1 sequence (P27361 whole entry, species assumed): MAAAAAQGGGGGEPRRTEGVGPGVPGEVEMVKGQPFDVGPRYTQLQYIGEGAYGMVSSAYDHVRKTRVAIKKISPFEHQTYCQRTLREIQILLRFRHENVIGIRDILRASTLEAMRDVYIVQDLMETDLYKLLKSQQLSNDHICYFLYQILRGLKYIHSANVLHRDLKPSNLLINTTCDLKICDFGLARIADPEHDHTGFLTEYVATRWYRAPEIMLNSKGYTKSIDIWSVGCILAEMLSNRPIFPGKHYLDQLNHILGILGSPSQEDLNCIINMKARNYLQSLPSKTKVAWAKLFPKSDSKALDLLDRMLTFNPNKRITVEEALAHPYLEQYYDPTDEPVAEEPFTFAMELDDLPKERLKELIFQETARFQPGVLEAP
Compound,"% metabolic stability predicted using hepatic microsomes, Mouse [2] [%]","% metabolic stability predicted using hepatic microsomes, Rat [3] [%]","% metabolic stability predicted using hepatic microsomes, Human [4] [%]","amount of TH in LC section 1, relative to the mean value of the control group [1] [%]","amount of TH in LC section 2, relative to the mean value of the control group [1] [%]","amount of TH in LC section 3, relative to the mean value of the control group [1] [%]","amount of TH in LC section 4, relative to the mean value of the control group [1] [%]","amount of TH in LC section 5, relative to the mean value of the control group [1] [%]","amount of TH in LC section 6, relative to the mean value of the control group [1] [%]","amount of TH in LC section 7, relative to the mean value of the control group [1] [%]","amount of TH in LC section 8, relative to the mean value of the control group [1] [%]",further results
"O=C(Nc1cccnc1)NN1CCc2ccccc21 [Example 2, N-(2,3-dihydro-1H-indol-1-yl)-N′-(3-pyridyl)urea]",85,55,98,63,77,64,57,34,15,8,2,
"O=C(Nc1cccnc1)Nn1ccc2ccccc21 [Example 1, N-(1H-indol-1-yl)-N′-(3-pyridyl)urea]",78,78,72,66,85,74,64,45,40,8,2,"degree of crossing of the BBB (category) [5]: high; binding to ERK1 (ERK1 [6]; non-phosphorylated recombinant ERK1 on chip, different concentrations): binds strongly; binding to ERK1 when the corresponding phosphorylated ERK is added to the medium (ERK1 [6]; p-ERK1 added to the medium): inhibited; binding to ERK2 (ERK2 [7]; non-phosphorylated recombinant ERK2 on chip, different concentrations): binds strongly; binding to ERK2 when the corresponding phosphorylated ERK is added to the medium (ERK2 [7]; p-ERK2 added to the medium): inhibited; phosphorylation of ERK1 in the hippocampus (ERK1 [8]; pig brain hippocampus ex vivo): increases; phosphorylation of ERK1 in the prefrontal cortex (ERK1 [8]; [10]): increases; phosphorylation of ERK2 in the hippocampus (ERK2 [9]; pig brain hippocampus ex vivo): increases; phosphorylation of ERK2 in the prefrontal cortex (ERK2 [9]; [10]): increases; phosphorylation of ERK2 in the striatum (ERK2 [9]; pig brain striatum ex vivo): increases"

# Now from value to molecule, other results behind:
"% metabolic stability predicted using hepatic microsomes, Mouse [2] [%]","% metabolic stability predicted using hepatic microsomes, Rat [3] [%]","% metabolic stability predicted using hepatic microsomes, Human [4] [%]",Compound,"amount of TH in LC section 1, relative to the mean value of the control group [1] [%]","amount of TH in LC section 2, relative to the mean value of the control group [1] [%]","amount of TH in LC section 3, relative to the mean value of the control group [1] [%]","amount of TH in LC section 4, relative to the mean value of the control group [1] [%]","amount of TH in LC section 5, relative to the mean value of the control group [1] [%]","amount of TH in LC section 6, relative to the mean value of the control group [1] [%]","amount of TH in LC section 7, relative to the mean value of the control group [1] [%]","amount of TH in LC section 8, relative to the mean value of the control group [1] [%]",further results
72,69,67,"O=C(NCc1ccccn1)Nn1ccc2ccccc21 [Example 24, N-(1H-indol-1-yl)-N′-(2-pyridylmethyl)urea]",74,78,68,45,29,19,5,7,
84,89,82,"O=C(Nc1ccncc1)Nn1ccc2cc(Cl)ccc21 [Example 13, N-(5-chloro-1H-indol-1-yl)-N′-(4-pyridyl)urea]",,,,,,,,,
77,73,77,"O=C(Nc1ccncc1)Nn1ccc2ccccc21 [Example 6, N-(1H-indol-1-yl)-N′-(4-pyridyl)urea]",65,81,59,33,20,13,8,2,
